Data: article PMC13576449, “Small-Molecule Activators of PRMT1: Discovery, SAR Analyses, and Proapoptotic Effects in Pancreatic Cancer Cells” (Journal of Medicinal Chemistry, 2026)

What was measured:
Assay type in all cases: biochemical
FLAG-tagged PRMT6 = molecular target: T1, FLAG-tagged PRMT6 (Homo sapiens, UniProt Q96LA8); experiment: Fluorescence-based in vitro PRMT assay (F-PRMT assay), PRMT6; conditions: Table 1; 100 μM compound, 2 μM PRMT, vs solvent control = 100%, n = 3; racemates used
T1 construct: The complete ORFs of human PRMT3 and PRMT6 were inserted; made in house; host or cells: Sf9 insect cells (baculovirus)
T1 sequence (Q96LA8 whole entry): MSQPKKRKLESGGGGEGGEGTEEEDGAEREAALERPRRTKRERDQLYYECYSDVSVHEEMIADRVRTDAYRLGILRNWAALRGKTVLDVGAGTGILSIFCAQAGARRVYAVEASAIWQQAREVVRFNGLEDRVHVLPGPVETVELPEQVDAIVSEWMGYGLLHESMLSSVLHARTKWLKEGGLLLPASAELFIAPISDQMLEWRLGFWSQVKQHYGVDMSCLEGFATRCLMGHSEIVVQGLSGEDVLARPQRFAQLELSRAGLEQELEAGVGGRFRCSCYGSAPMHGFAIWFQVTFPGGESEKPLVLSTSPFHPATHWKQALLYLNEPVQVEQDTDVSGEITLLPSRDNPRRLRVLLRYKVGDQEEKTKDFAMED
Source text: (§1) To evaluate the effects of the selected candidate molecules on the catalytic activity of type I enzymes, we employed a quantitative fluorescence-based in vitro PRMT activity (F-PRMT) assay using recombinant FLAG-tagged PRMT proteins expressed and affinity-purified from baculovirus-infected Sf9 cells (SI Figure S1, SI Figure S2A).
(§2) Human cell lines (PaTu8988T, PANC-1) were obtained from ATCC (American Type Culture Collection) and cultured in DMEM supplemented with 10% fetal calf serum (FCS, Gibco/BRL), 1% penicillin/streptomycin at 37 °C and 5% CO2. […] For PRMT1 inhibition, cells were treated with type I PRMT inhibitor MS023 hydrochloride (Biomol). For induction of genotoxic stress, cells were treated with gemcitabine (LC Laboratories). […] The following plasmids were used: pFASTBAC-FLAG-rat PRMT1, pFASTBAC-FLAG-mouse PRMT4, and pGEX-GAR. The complete ORFs of human PRMT3 and PRMT6 were inserted into the pFASTBAC HT-3xFLAG B vector via BamHI/HindIII and BamHI/XhoI sites, respectively.
(§3) For PRMT protein expression in insect cells, recombinant baculovirus (bacmid) was generated using the Bac-to-Bac baculovirus system (Invitrogen). Sf9 cells were transfected with bacmid DNA using X-tremeGENE HP DNA transfection reagent (Sigma-Aldrich) according to the manufacturer's instructions. After 3–5 days, supernatants were collected, filtered, and used to infect Sf9 cells to amplify the virus. After 2 rounds of virus amplification and estimation of the final P3 virus titer, the P3 virus (2–5 μL/10^6 cells) was applied for large-scale infection of 200 × 10^6 Sf9 cells in suspension culture at a density of 1 × 10^6 cells/mL. Cells were harvested 5–6 days post-infection by centrifugation at 500 g for 5 min at room temperature. Protein purification from baculovirus-infected Sf9 cells was performed as previously described. , Cells were lysed in BC buffer (20 mM HEPES pH 7.9, 250 mM NaCl, 10% (v/v) glycerin, 0.4 mM EDTA, 1 mM DTT) containing a protease inhibitor cocktail (Roche) by 3 freeze-thaw cycles. After centrifugation at 11,000 rpm (Sorval SS34 rotor) and 4 °C for 1 h, the supernatant (whole cell protein extract) was incubated with anti-FLAG M2 Affinity Gel (Cytiva) at 4 °C and under agitation for 4 h. Subsequently, beads were washed in BC buffer containing various NaCl concentrations (once in BC with 1 M NaCl, twice in BC with 500 mM NaCl, twice in BC with 250 mM NaCl and twice in BC with 100 mM NaCl). FLAG-tagged proteins were either maintained bead-bound as a 50% (v/v) slurry in BC buffer with 100 mM NaCl and stored at −80 °C or were eluted in the appropriate elution buffer (depending on the subsequent assay) containing 0.25 mg/mL 3xFLAG peptides (Sigma-Aldrich) at 4 °C for 30–45 min. To remove the FLAG-peptides from the eluate, dialysis was performed in elution buffer containing 10% (v/v) glycerol at 4 °C for 4–6 h using Slide-A-Lyzer Dialysis Devices (Thermo Fisher Scientific) according to the manufacturer’s recommendations.
(§4) In the first step, the fluorogenic substrate Nα-Benzoyl-L-arginine-7-amido-4-methylcoumarin (Bz-Arg-AMC, Sigma-Aldrich) undergoes methylation by PRMTs upon the addition of the cofactor SAM. In the second reaction step, trypsin cleaves the nonmethylated substrate, leading to the generation of the 7-amino-4-methylcoumarin product, which can be quantified by subsequent fluorescence measurement (excitation: 355 nm, emission: 460 nm). The first reaction was conducted with bead-bound PRMTs at a total volume of 100 μL. Each condition was performed as a technical triplicate to determine the mean and the standard deviation. […] For the negative controls, SAM was substituted with assay buffer. The incubation was continued at 37 °C and under agitation (1,000 rpm) for a duration of 2 h.

FLAG-tagged PRMT3 = molecular target: T2, FLAG-tagged PRMT3 (Homo sapiens, UniProt O60678); experiment: Fluorescence-based in vitro PRMT assay (F-PRMT assay), PRMT3; conditions: Table 1; 100 μM compound, 2 μM PRMT, vs solvent control = 100%, n = 3; racemates used
T2 construct: The complete ORFs of human PRMT3 and PRMT6 were inserted; made in house; host or cells: Sf9 insect cells (baculovirus)
T2 sequence (O60678 whole entry): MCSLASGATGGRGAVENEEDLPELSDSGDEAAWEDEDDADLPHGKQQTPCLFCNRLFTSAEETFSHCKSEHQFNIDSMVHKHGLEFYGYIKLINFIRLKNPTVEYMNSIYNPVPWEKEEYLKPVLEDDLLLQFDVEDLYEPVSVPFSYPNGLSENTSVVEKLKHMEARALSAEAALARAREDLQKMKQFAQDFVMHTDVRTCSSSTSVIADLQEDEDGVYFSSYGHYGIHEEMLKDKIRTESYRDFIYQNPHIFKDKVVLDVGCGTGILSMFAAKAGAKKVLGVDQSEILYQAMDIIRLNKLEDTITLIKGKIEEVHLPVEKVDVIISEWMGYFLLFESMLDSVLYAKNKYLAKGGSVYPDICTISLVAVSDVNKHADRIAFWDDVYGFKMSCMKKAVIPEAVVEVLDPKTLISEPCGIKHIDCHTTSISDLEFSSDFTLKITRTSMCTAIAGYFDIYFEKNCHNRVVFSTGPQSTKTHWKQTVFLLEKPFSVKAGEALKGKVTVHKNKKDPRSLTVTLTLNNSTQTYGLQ
Source text: as §1, §2, §3, §4

FLAG-tagged PRMT4 = molecular target: T3, FLAG-tagged PRMT4 (Mus musculus, UniProt Q9WVG6); experiment: Fluorescence-based in vitro PRMT assay (F-PRMT assay), PRMT4; conditions: for Experimental result (PRMT4): vs solvent control = 100%, racemates used
T3 construct: Full-length FLAG-tagged PRMT protein; made in house; host or cells: Sf9 insect cells (baculovirus)
T3 sequence (Q9WVG6 1-608): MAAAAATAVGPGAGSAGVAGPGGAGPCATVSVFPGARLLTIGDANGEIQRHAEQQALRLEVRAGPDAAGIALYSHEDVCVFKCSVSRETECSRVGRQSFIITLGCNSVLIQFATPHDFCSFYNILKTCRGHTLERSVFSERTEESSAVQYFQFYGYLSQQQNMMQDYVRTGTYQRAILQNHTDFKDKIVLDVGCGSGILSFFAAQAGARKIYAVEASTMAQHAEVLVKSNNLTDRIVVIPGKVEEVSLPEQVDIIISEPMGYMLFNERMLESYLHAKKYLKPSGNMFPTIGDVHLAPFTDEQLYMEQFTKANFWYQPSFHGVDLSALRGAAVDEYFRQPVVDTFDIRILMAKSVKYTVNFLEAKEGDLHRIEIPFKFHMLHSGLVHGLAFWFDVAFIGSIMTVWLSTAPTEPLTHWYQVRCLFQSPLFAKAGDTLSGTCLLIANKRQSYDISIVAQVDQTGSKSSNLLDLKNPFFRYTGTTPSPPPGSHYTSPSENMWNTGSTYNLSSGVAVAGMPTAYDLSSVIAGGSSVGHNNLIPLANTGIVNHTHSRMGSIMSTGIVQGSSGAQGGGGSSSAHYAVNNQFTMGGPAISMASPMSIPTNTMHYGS
Source text: as §1, §2, §3, §4

FLAG-tagged PRMT1 = molecular target: T4, FLAG-tagged PRMT1 (Rattus norvegicus, UniProt Q63009); experiment: Fluorescence-based in vitro PRMT assay (F-PRMT assay), PRMT1; conditions: Table 1, 100 μM compound, n = 3; for Experimental result (PRMT1): 2 μM PRMT, vs solvent control = 100%, racemates used
T4 construct: Full-length FLAG-tagged PRMT protein; made in house; host or cells: Sf9 insect cells (baculovirus)
T4 sequence (Q63009 whole entry): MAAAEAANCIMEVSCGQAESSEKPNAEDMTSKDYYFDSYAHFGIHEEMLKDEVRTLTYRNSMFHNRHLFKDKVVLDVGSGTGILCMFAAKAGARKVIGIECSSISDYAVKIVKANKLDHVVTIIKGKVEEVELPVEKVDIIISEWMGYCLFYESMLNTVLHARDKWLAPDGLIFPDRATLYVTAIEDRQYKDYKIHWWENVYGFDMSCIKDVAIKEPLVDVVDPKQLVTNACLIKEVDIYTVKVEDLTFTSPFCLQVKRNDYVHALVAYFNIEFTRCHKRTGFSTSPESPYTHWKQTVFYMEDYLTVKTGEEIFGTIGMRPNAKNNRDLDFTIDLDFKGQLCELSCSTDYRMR

[1] = Table 1, 100 μM compound, 2 μM PRMT, n = 3

Row | Experimental result (PRMT6) (FLAG-tagged PRMT6) | Experimental result (PRMT4) (FLAG-tagged PRMT4; [1]) | Compound | Experimental result (PRMT3) (FLAG-tagged PRMT3) | Experimental result (PRMT1) (FLAG-tagged PRMT1) | Experimental result (PRMT4) (FLAG-tagged PRMT4; Table S2, 100 µM compound, n=3) | other results
1 | PRMT6 i | PRMT4 i | CNC[C@H](O)COc1ccc([N+](=O)[O-])cc1Cl (racemic) [Compound K001JS007] | PRMT3 n.e. (Compounds, which did not significantly affect the catalytic activity (less than ±6% change or not significant p-value), are marked with [drawing 8] (no effect)) | PRMT1 i |  | Efficacy ±Δ% (PRMT1) (FLAG-tagged PRMT1; mean % difference of activity vs solvent control (100%), - inhibition, + activation): -30%
2 |  |  | NCCc1cn2cccc(OCc3ccccc3)c2n1 [Compound K001FT005] |  |  | n.e. (did not significantly affect the catalytic activity of the intended PRMT (less than ±6% change or not significant p-value), are marked with n.e. (no effect)) | 
3 |  |  | Cn1ccnc1Cn1c(CCCN)nc2c1CCCC2 [Compound K001FT006] |  |  | n.e. (did not significantly affect the catalytic activity of the intended PRMT (less than ±6% change or not significant p-value), are marked with n.e. (no effect)) | 
4 |  |  | COc1cccc(CNC(=O)NCc2nc3ccccc3s2)c1 [Compound K001FT008] |  |  | n.e. (did not significantly affect the catalytic activity of the intended PRMT (less than ±6% change or not significant p-value), are marked with n.e. (no effect)) | 
5 |  |  | NCCCNCc1sc2ccccc2c1Cl [Compound K001FT010] |  |  | n.e. (did not significantly affect the catalytic activity of the intended PRMT (less than ±6% change or not significant p-value), are marked with n.e. (no effect)) | 
6 |  |  | CNCCCNCc1ccccc1Br [Compound K001FT011] |  |  | n.e. (did not significantly affect the catalytic activity of the intended PRMT (less than ±6% change or not significant p-value), are marked with n.e. (no effect)) | 
7 |  |  | COc1cccc(NC(=O)COC(=O)c2cc3ccccc3[nH]2)c1 [Compound K001JS005] |  |  | n.e. (did not significantly affect the catalytic activity of the intended PRMT (less than ±6% change or not significant p-value), are marked with n.e. (no effect)) | 
8 | PRMT6 i | PRMT4 i | CNCCCNCCc1ccccc1 [Compound K001JS006] | PRMT3 n.e. (Compounds, which did not significantly affect the catalytic activity (less than ±6% change or not significant p-value), are marked with [drawing 8] (no effect)) | PRMT1 n.e. (Compounds, which did not significantly affect the catalytic activity (less than ±6% change or not significant p-value), are marked with [drawing 8] (no effect)) |  | Efficacy ±Δ% (PRMT4) (FLAG-tagged PRMT4; Table 1, 100 μM compound, mean % difference of activity vs solvent control (100%), - inhibition, + activation, n = 3): -10%

Row | Compound | Experimental result (PRMT6) (FLAG-tagged PRMT6) | Experimental result (PRMT4) (FLAG-tagged PRMT4; [1]) | Experimental result (PRMT3) (FLAG-tagged PRMT3) | Experimental result (PRMT1) (FLAG-tagged PRMT1) | Experimental result (PRMT4) (FLAG-tagged PRMT4; Table S2, 100 µM compound, n=3) | other results
9 | CNC[C@@H](O)COc1cccc(OC)c1 (racemic) [Compound K001JS003] | PRMT6 n.e. (Compounds, which did not significantly affect the catalytic activity (less than ±6% change or not significant p-value), are marked with [drawing 8] (no effect)) | PRMT4 i | PRMT3 n.e. (Compounds, which did not significantly affect the catalytic activity (less than ±6% change or not significant p-value), are marked with [drawing 8] (no effect)) | PRMT1 n.e. (Compounds, which did not significantly affect the catalytic activity (less than ±6% change or not significant p-value), are marked with [drawing 8] (no effect)) |  | 
